≈ marks a conversion by molar mass, not a printed value. Read-outs that look alike come from different tables or passages of the source.
What was measured:
H. influenzae ATCC19418 = assay: In vitro antibacterial activity (MIC), H. influenzae ATCC19418; assay type: cell-based; conditions: Haemophilus influenzae, sensitive disc media, read-out: MIC value (Minimum Inhibitory Concentration)
Method: (§1) The in vitro antibacterial activity of the compound of the present invention against various experimental microorganism was measured using sensitive disc media (produced by Eiken Chemical Co.) according to the MIC measuring method specified by the Japan Chemotherpeutic Society. Comparative drug 1:3-deoxy-11-{2-[methyl(benzyl)amino]ethyl}amino-3-oxo-5-O-desosaminyl-6-O-methylerythronolide A 11-N,12-O-cyclic carbamate (described in EP patent No. 0487411), Comparative drug 2:3-deoxy-3-oxo-5-O-desosaminyl-6-O-methylerythronolide A 11,12-cyclic carbonate (described in EP patent No. 0487411), Comparative drug 3:6-O-methylerythromycin A and Comparative drug 4:azithromycin were used.

E. faecalis CSJ 1212 = assay: In vitro antibacterial activity (MIC), E. faecalis CSJ 1212; assay type: cell-based; conditions: Enterococcus faecalis
Method: as §1

S. aureus 209P-JC = assay: In vitro antibacterial activity (MIC), S. aureus 209P-JC; assay type: cell-based; conditions: Staphylococcus aureus, read-out: MIC value (Minimum Inhibitory Concentration)
Method: as §1

S. aureus B1 = assay: In vitro antibacterial activity (MIC), S. aureus B1; assay type: cell-based; conditions: Staphylococcus aureus
Method: as §1

S. aureus Smith 4 [1] = assay: In vivo antibacterial activity: protection effect against infection with S. aureus Smith 4 in mice; design: species or system male ICR mice; conditions: oral, 1 hour after inoculation, 7 days
Method: The injection protection effect of the compound of the present invention against infectious bacteria (S. aureus Smith 4) was studied using 8 male ICR mice, 4-week-old, for each group and using Comparative drugs 1, 2 and 3 (as described in Experiment 1). Infectious bacteria (S. aureus Smith 4) were incubated for 18 hours, and diluted with a saline solution containing 5% mucin and heart infusion agar, and 0.5 ml of which was inoculated intraperitoneally to mice. An hour after inoculation of bacteria, the drug suspended in 5% gum arabic was administered orally, followed by judgement of life and death during 7 days.

S. aureus Smith 4 [2] = assay: In vitro antibacterial activity (MIC), S. aureus Smith 4; assay type: cell-based; conditions: Staphylococcus aureus
Method: as §1

[3] = Concentration in mouse serum after oral administration; assay type: in vivo, male ICR mice; conditions: dose not given; for AUC / Cmax: mouse serum; for concentration at 0.25 h / concentration at 0.5 h / concentration at 1 h / concentration at 2 h / concentration at 4 h / concentration at 6 h: mouse, serum; for concentration at 0.5 h: 0.50 hr
Method: Concentration of the compound of the present invention in mouse serum was determined by using 10 male ICR mice, 4-week-old, for each group and using Comparative drugs 2 and 3 (as described in Experiment 1). The drug suspended in 5% gum arabic was administered orally to mice, the blood was collected with lapse of time, and the serum was separated. Concentration of the drug in the serum was measured by using M. luteus ATCC 9341 as approved bacteria according to the papar-disc method.

[4] = S. aureus B1, sensitive disc media, read-out: MIC value (Minimum Inhibitory Concentration)
[5] = SMITH4, S. aureus Smith 4, sensitive disc media, read-out: MIC value (Minimum Inhibitory Concentration)
[6] = CSJ1212, E. faecalis CSJ 1212, sensitive disc media, read-out: MIC value (Minimum Inhibitory Concentration)
[7] = S. aureus 209P-JC, sensitive disc media
[8] = B1, read-out: MIC value (Minimum Inhibitory Concentration)

Structure (SMILES) | MIC (H. influenzae ATCC19418) [mg/L] | MIC (S. aureus 209P-JC; 209P) [mg/L] | MIC (S. aureus B1; [4]) [mg/L] | Number of Survival (n = 8) (S. aureus Smith 4 [1]; 0.1 mg/mouse) | Number of Survival (n = 8) (S. aureus Smith 4 [1]; 0.4 mg/mouse) | Number of Survival (n = 8) (S. aureus Smith 4 [1]; 1.6 mg/mouse) | MIC (S. aureus Smith 4 [2]; [5]) [mg/L] | MIC (E. faecalis CSJ 1212; [6]) [mg/L] | MIC (S. aureus 209P-JC; [7]) [mg/L] | AUC [3] [µg·h/mL] | Cmax [3] [µg/mL] | concentration at 0.25 h [3] [µg/mL] | concentration at 0.5 h [3] [µg/mL] | concentration at 1 h [3] [µg/mL] | concentration at 2 h [3] [µg/mL] | concentration at 4 h [3] [µg/mL] | MIC (S. aureus B1; [8]) [mg/L] | concentration at 6 h ([3]; 6 hr) [µg/mL] | other results
CC[C@H]1OC(=O)[C@H](C)C(=O)[C@H](C)[C@@H](O[C@@H]2O[C@H](C)C[C@H](N(C)C)[C@H]2O)[C@](C)(OC)C[C@@H](C)C(=O)[C@H](C)[C@H]2N(CCN(C)Cc3ccccc3)C(=O)O[C@]12C [Comparative drug 1, 3-deoxy-11-{2-[methyl(benzyl)amino]ethyl}amino-3-oxo-5-O-desosaminyl-6-O-methylerythronolide A 11-N,12-O-cyclic carbamate] | 6.25 (≈ 8.22 µM) | 0.1 (≈ 0.132 µM) | 0.39 (≈ 0.513 µM) | 2 | 2 | 7 | 0.1 (≈ 0.132 µM) |  |  |  |  |  |  |  |  |  |  |  | MIC (E. faecalis CSJ 1212; CSJ1212, read-out: MIC value (Minimum Inhibitory Concentration)): 0.1 mg/L (≈ 0.132 µM)
CC[C@H]1OC(=O)[C@H](C)C(=O)[C@H](C)[C@@H](O[C@@H]2O[C@H](C)C[C@H](N(C)C)[C@H]2O)[C@](C)(OC)C[C@@H](C)C(=O)[C@H](C)[C@H]2OC(=O)O[C@@]21C [Comparative drug 2, 3-deoxy-3-oxo-5-O-desosaminyl-6-O-methylerythronolide A 11,12-cyclic carbonate] | 25 (≈ 40.7 µM) |  | 1.56 (≈ 2.54 µM) | 2 | 8 | 8 | 0.1 (≈ 0.163 µM) | 0.05 (≈ 0.0815 µM) | 0.1 (≈ 0.163 µM) | 1.37 | 0.41 | 0.31 | 0.41 | 0.27 | 0.28 | 0.26 |  |  | Concentration in mouse serum ([3]; 6 hr): 0 µg/mL
CC[C@H]1OC(=O)[C@H](C)[C@@H](O[C@H]2C[C@@](C)(OC)[C@@H](O)[C@H](C)O2)[C@H](C)[C@@H](O[C@@H]2O[C@H](C)C[C@H](N(C)C)[C@H]2O)[C@](C)(OC)C[C@@H](C)C(=O)[C@H](C)[C@@H](O)[C@]1(C)O [Comparative drug 3, 6-O-methylerythromycin A] | 12.5 (≈ 16.7 µM) |  |  | 3 | 6 | 8 | 0.1 (≈ 0.134 µM) | 3.13 (≈ 4.18 µM) | 0.1 (≈ 0.134 µM) | 0.88 | 0.34 | 0.29 | 0.33 | 0.34 | 0.11 | 0.11 | > 100 | 0.04 | 
CC[C@H]1OC(=O)[C@H](C)[C@@H](O[C@H]2C[C@@](C)(OC)[C@@H](O)[C@H](C)O2)[C@H](C)[C@@H](O[C@@H]2O[C@H](C)C[C@H](N(C)C)[C@H]2O)[C@](C)(O)C[C@@H](C)CN(C)[C@H](C)[C@@H](O)[C@]1(C)O [Comparative drug 4, azithromycin] | 6.25 (≈ 8.34 µM) |  | > 100 |  |  |  | 0.39 (≈ 0.521 µM) | 6.25 (≈ 8.34 µM) | 20 (≈ 26.7 µM) |  |  |  |  |  |  |  |  |  | 
CC[C@H]1OC(=O)[C@H](C)C(=O)[C@H](C)[C@@H](O[C@@H]2O[C@H](C)C[C@H](N(C)C)[C@H]2O)[C@](C)(OC)C[C@@H](C)C(=O)[C@H](C)[C@H]2NC(=O)O[C@@]21C [Compound 1, 11-amino-3,11-dideoxy-3-oxo-5-O-desosaminyl-6-O-methylerythronolide A 11-N,12-O-cyclic carbamate] | 6.25 (≈ 10.2 µM) | 0.05 (≈ 0.0816 µM) |  | 8 | 8 | 8 |  | 0.05 (≈ 0.0816 µM) |  | 2.9 | 1.17 | 0.23 | 1.17 | 0.77 | 0.6 | 0.44 | 0.2 (≈ 0.326 µM) | 0.05 | MIC (S. aureus Smith 4 [2]; SMITH4, read-out: MIC value (Minimum Inhibitory Concentration)): 0.1 mg/L (≈ 0.163 µM)
